From patent US20260041640A1 (INCYCLIX BIO, LLC, priority 2023, published 2026)
Values joined by “and” are separate entries in the source; they are usually repeats but may differ in a detail not shown here. Equal values may be shown once. Read-outs that look alike come from different tables or passages of the source.

Assay: First-in-human clinical study: plasma and whole blood PK of INX-315 (oral QD, ASD tablet)
Format: in vivo
Parameters: AUC Plasma / AUC Whole Blood: unit not given here
Description: All INX-315 tablets were taken at approximately the same time(s) each day.
Samples will also be collected pre-dose on Cycle 1 Days 2, 8, 16, and Day 22, and pre-dose on Day 1 of each subsequent cycle.
Standard non-compartmental PK parameters were estimated.
Geometric mean and geometric CV % will be included in the summary statistics.
PK parameters will be summarized descriptively by dosing cohort. AUC and Cmax values will also be presented in scatter plots. Dose proportionality will be assessed for AUC and Cmax using a power model. The 90% CI of the slope for each PK parameter will be estimated from the model and presented in a summary table.
Cohort 1 enrollment of 6 subjects dosed at 100 mg oral QD was completed in October of 2023.
Patients were upgraded to the 200 mg QD dose level and PK/PD plasma parameters were measured (FIG. 18A).
Patients were administered the 200 mg QD and 300 mg QD dose levels and PK/PD plasma parameters were measured.

[1] = Cohort 1 (100 mg QD), Day 1, individual subjects
[2] = Cohort 1 (100 mg QD), Day 15, individual subjects
[3] = Cohort 2 (200 mg QD), Day 1, individual subjects
[4] = Cohort 2 (200 mg QD), Day 15, individual subjects
[5] = Cohort 3 (300 mg QD), Day 1, individual subjects

NS(=O)(=O)c1ccc(Nc2ncc3cc4n(c3n2)C2(CCCCC2)C(=O)NN4)cc1 [INX-315]
Mean free plasma trough concentration (100 mg QD, C 1 D 1 (Day 1)): 2.98 (6) ng/mL and 2.98 ng/mL
Mean free plasma trough concentration (100 mg QD, C 1 D 7 (Day 7)): 5.7 (6) ng/mL and 5.71 ng/mL
Mean free plasma trough concentration (100 mg QD, C 1 D 14): 4.72 ng/mL
Mean free plasma trough concentration (100 mg QD, C 1 D 15): 5.43 ng/mL
Mean free plasma trough concentration (100 mg QD, C 1 D 21): 4.72 ng/mL
Mean free plasma trough concentration (100 mg QD, C 2 D 1): 4.32 ng/mL
Mean free plasma trough concentration (100 mg QD, C 3 D 1): 4.27 ng/mL
Mean free plasma trough concentration (100 mg QD, C 4 D 1): 5.91 ng/mL
Mean free plasma trough concentration (200 mg QD, C 1 D 1 (Day 1)): 7.3 (2) ng/mL and 7.31 ng/mL
Mean free plasma trough concentration (200 mg QD, C 1 D 7 (Day 7)): 10.2 (2) ng/mL and 10.16 ng/mL
AUC Plasma [1]: 2532 and 1886 and 3391 and 2271 and 3370 and 640.8
AUC Whole Blood [1]: 44857 and 38499 and 41732 and 33139 and 60740 and 13440
AUC Plasma [2]: 1276 and 5858 and 3444 and 6910 and 1951
AUC Whole Blood [2]: 37642 and 44316 and 118285 and 31754
time to steady state trough concentrations (Cohort 1, 100 mg QD): ≤ 7 days
AUC Plasma [3]: 4955 and 7528 and 11982 and 19801
AUC Whole Blood [3]: 132257 and 94340 and 131625
AUC Plasma [4]: 6987 and 6286 and 18669 and 13618
AUC Whole Blood [4]: 94895 and 236613 and 183345 and 112733
AUC Plasma [5]: 12111 and 11382 and 8338 and 11173
AUC Whole Blood [5]: 149733 and 88350 and 116734 and 106858
half-life (human, plasma and whole blood, oral, 100 mg, preliminary data of the expanded cohort 1, 100 mg QD, read-out: t1/2 (converted)): ≥ 720 min
concentration at 0.5 h (human, plasma, oral, 100 mg, 100 mg QD (n = 6), 0.5 hr): 18.9 ng/mL
concentration at 1 h (human, plasma, oral, 100 mg, 100 mg QD (n = 6), 1.0 hr): 71.4 ng/mL
concentration at 2 h (human, plasma, oral, 100 mg, 100 mg QD (n = 6), 2.0 hr): 158 ng/mL
concentration at 6 h (human, plasma, oral, 100 mg, 100 mg QD (n = 6), 6.0 hr): 132 ng/mL
concentration at 8 h (human, plasma, oral, 100 mg, 100 mg QD (n = 6), 8.0 hr): 121 ng/mL
concentration at 24 h (human, plasma, oral, 100 mg, 100 mg QD (n = 6), […], read-out: Mean plasma concentration): 57.4 ng/mL
AUC (human, plasma, oral, 100 mg, plasma, 100 mg QD (n = 6), read-out: Total Area (AUC)): 2400 ng·h/mL
Cmax (human, plasma, oral, 100 mg, plasma, 100 mg QD, Day 1 (Example 10), read-out: Cmax): 148 ng/mL
AUC(0-t) (human, plasma, oral, 100 mg, plasma, 100 mg QD, Day 1, Cohort 1 (Table 27), read-out: AUClast, geometric mean): 2640 ng·h/mL
Cmax (human, plasma, oral, 100 mg, plasma, 100 mg QD, Day 1, Cohort 1 (Table 27), read-out: Cmax, geometric mean): 193 ng/mL
Tmax (human, plasma, oral, 100 mg, plasma, 100 mg QD, Day 1, Cohort 1 (Table 27), read-out: Tmax, median): 2 h
half-life (human, plasma, oral, 100 mg, plasma, 100 mg QD, Day 1, Cohort 1 (Table 27), read-out: t1/2, geometric mean (converted)): 756 min
AUC (human, plasma, oral, 100 mg, plasma, 100 mg QD, Day 1, average of five human patients (Example 10), read-out: AUC): 2020 ng·h/mL
AUC(0-t) (human, plasma, oral, 100 mg, plasma, 100 mg QD, Day 1, individual patients, read-out: AUClast): 3490 ng·h/mL
half-life (human, plasma, oral, 100 mg, plasma, 100 mg QD, Day 1, individual patients, read-out: t1/2 (converted)): 906 min
AUC (human, plasma, oral, 100 mg, plasma, 100 mg QD, Day 1 observed, mean of first two patients, read-out: AUC): 3450 ng·h/mL
Cmax (human, plasma, oral, 100 mg, plasma, 100 mg QD, Day 1 observed, mean of first two patients, read-out: Cmax): 196 ng/mL
concentration at 1 day (human, plasma, oral, 100 mg, plasma, 100 mg QD, Day 1 observed, mean of first two patients, read-out: Cmin): 103 ng/mL
concentration at 1 day (human, plasma, oral, 100 mg, plasma, 100 mg QD, Day 1 observed, mean of first two patients, read-out: Cmin^free): 5.4 ng/mL
AUC (human, plasma, oral, 100 mg, plasma, 100 mg QD, Day 15 (Example 10), read-out: AUC): 3290 ng·h/mL
Cmax (human, plasma, oral, 100 mg, plasma, 100 mg QD, Day 15 (Example 10), read-out: Cmax): 211 ng/mL
AUC(0-t) (human, plasma, oral, 100 mg, plasma, 100 mg QD, Day 15, individual patients, read-out: AUClast): 7240 ng·h/mL
Cmax (human, plasma, oral, 100 mg, plasma, 100 mg QD, Day 15, individual patients, read-out: Cmax): 457 ng/mL
half-life (human, plasma, oral, 100 mg, plasma, 100 mg QD, Day 15, individual patients, read-out: t1/2 (converted)): 1020 min
AUC (human, plasma, oral, 100 mg, plasma, 100 mg QD, Day 15 observed, mean of first two patients, read-out: AUC): 6580 ng·h/mL
Cmax (human, plasma, oral, 100 mg, plasma, 100 mg QD, Day 15 observed, mean of first two patients, read-out: Cmax): 408 ng/mL
concentration at 15 day (human, plasma, oral, 100 mg, plasma, 100 mg QD, Day 15 observed, mean of first two patients, read-out: Cmin): 177 ng/mL
